Consider three compounds from patent publication US10844077B2, “Thiazolyl-containing compounds for treating proliferative diseases” (Dana-Farber Cancer Institute, Inc., priority 2014, dated 2020).

“And” between values parts separate entries of the source, which are not always exact repeats. Identical values can stand only once. Like-named read-outs stand apart in the source and are kept apart here.

Assay [1] has as its target kinases in BCWM.1 cells (Homo sapiens, UniProt Q04759). Type of assay: cell-based. Conditions: PKCt; ATP Loop; 1 μM, 90 min; GF. The protocol:
(§1) The cells were harvested and lysed. […] Bound kinases were identified and quantitated by ACTIVX as described in Patricelli et al., Biochemistry, 2007, 46(2): 350-358. The compounds were tested in duplicates against duplicate or quadruplicate control samples.

The target in assay [2] is kinases in BCWM.1 cells (Homo sapiens, UniProt Q13572). Nature of the assay: KINATIV assay of compounds I-3 and I-9, lysate directly labeled with ATP-biotin probe (no GF). Type of assay: cell-based. Conditions: ITPK1; ATP; 1 μM; no GF. As to the method:
as §1

Assay [3] concerns the target kinases in BCWM.1 cells (Homo sapiens, UniProt O75582). The assay is described as above. Format: cell-based. As to conditions: MSK1 domain1; Lys2; 1 μM; no GF. The protocol: as §1
Assay [4] deals with kinases in BCWM.1 cells (Homo sapiens, UniProt Q13315). The description is as above. Format: cell-based. As to conditions: ATM; ATP; 1 μM; no GF. As to the method:
as §1

The target in assay [5] is kinases in BCWM.1 cells (Homo sapiens, UniProt Q9Y616). Described as above. Format: cell-based. As to conditions: IRAK3; Lys1; 1 μM; no GF. As to the method: as §1
The target of assay [6] is T1, kinases in BCWM.1 cells (Homo sapiens, UniProt P27361). Described as above. As to conditions: Erk1; Lys2; 1 μM; no GF. Format: cell-based. The protocol:
as §1

In assay [7] the target is kinases in BCWM.1 cells (Homo sapiens, UniProt O14757). The description is as above. Format: cell-based. As to conditions: CHK1; Lys2; 1 μM; no GF. The protocol:
as §1

Assay [8] addresses T2, kinases in BCWM.1 cells (Homo sapiens, UniProt Q96GX5). The description is as above. Conditions: MASTL, 1 μM, no GF. Type of assay: cell-based. As to the method:
as §1

The target of assay [9] is T3, kinases in BCWM.1 cells (Homo sapiens, UniProt O00418). The assay is described as above. Format: cell-based. Conditions: eEF2K; ATP; 1 μM; no GF. The protocol: as §1
T3 sequence (O00418 2-725 limits assumed): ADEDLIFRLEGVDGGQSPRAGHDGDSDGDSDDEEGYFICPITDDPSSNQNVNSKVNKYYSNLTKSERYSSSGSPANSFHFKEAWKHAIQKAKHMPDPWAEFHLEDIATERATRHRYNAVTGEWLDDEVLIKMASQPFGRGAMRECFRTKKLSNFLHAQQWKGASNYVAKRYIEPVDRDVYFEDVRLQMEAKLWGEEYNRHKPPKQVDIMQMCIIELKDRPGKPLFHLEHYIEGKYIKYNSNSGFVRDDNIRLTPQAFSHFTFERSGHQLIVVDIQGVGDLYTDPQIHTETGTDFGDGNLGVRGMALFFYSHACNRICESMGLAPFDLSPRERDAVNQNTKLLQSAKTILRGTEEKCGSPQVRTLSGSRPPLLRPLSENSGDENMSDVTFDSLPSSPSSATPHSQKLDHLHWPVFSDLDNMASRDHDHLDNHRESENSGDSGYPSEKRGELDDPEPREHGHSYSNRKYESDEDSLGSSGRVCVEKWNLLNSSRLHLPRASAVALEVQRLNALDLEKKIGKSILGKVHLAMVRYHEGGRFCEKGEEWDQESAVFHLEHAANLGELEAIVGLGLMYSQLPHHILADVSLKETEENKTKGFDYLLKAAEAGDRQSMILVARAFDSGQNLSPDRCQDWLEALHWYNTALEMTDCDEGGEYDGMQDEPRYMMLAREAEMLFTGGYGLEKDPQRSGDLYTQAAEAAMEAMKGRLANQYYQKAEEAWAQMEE
In assay [10] the target is kinases in BCWM.1 cells (Homo sapiens, UniProt Q99755). Described as above. Type of assay: cell-based. Conditions: PIP5K1A; ATP; 1 μM, 90 min; no GF. As to the method:
as §1

For assay [11], the target named is PFTAIRE1 (Homo sapiens (Human), UniProt O94921). As to the method:
The cells were harvested and lysed. The lysates were directly labeled with an ATP-biotin probe. Bound kinases were identified and quantitated by ACTIVX as described in Patricelli et al., Biochemistry, 2007, 46(2): 350-358. The compounds were tested in duplicates against duplicate or quadruplicate control samples.

The target of assay [12] is kinases in BCWM.1 cells (Homo sapiens, UniProt Q96RR4). Format: cell-based. Conditions: CaMKK2; Lys2; 1 μM; GF. As to the method:
as §1

Assay [13] has as its target kinases in BCWM.1 cells (Homo sapiens, UniProt P51617). Type of assay: cell-based. Conditions: IRAK1; Lys2; 1 μM; GF. As to the method: as §1
Assay [14] addresses kinases in BCWM.1 cells (Homo sapiens, UniProt Q9Y6R4). Format: cell-based. Conditions: MAP3K4; Lys2; 1 μM; GF. The protocol:
as §1

Assay [15] has as its target kinases in BCWM.1 cells (Homo sapiens, UniProt Q9NWZ3). Type of assay: cell-based. As to conditions: IRAK4; Lys2; 1 μM; GF. As to the method: as §1
In assay [16] the target is kinases in BCWM.1 cells (Homo sapiens, UniProt O14733). Format: cell-based. Conditions: MAP2K7; Lys2; 1 μM; GF. As to the method: as §1
Sequence of kinases in BCWM.1 cells (Homo sapiens, UniProt O14733) (O14733 2-419 limits assumed): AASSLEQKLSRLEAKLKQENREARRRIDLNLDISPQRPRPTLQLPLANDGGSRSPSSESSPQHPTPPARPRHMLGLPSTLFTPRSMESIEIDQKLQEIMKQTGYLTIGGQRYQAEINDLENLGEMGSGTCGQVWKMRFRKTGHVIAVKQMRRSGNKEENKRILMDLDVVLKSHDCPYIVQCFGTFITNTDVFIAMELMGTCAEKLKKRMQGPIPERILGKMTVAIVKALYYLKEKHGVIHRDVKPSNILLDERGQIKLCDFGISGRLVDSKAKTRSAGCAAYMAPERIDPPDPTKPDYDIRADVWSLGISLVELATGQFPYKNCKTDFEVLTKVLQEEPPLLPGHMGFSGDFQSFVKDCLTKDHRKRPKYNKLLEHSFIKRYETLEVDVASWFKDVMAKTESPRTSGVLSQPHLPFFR
For assay [17], the target named is kinases in BCWM.1 cells (Homo sapiens, UniProt Q9Y4K4). Format: cell-based. Conditions: KHS1; Lys1; 1 μM; GF. The protocol: as §1
Assay [18] has as its target kinases in BCWM.1 cells (Homo sapiens, UniProt Q9P2K8). Format: cell-based. Conditions: GCN2; Lys2; 1 μM; GF. As to the method: as §1
The target of assay [19] is kinases in BCWM.1 cells (Homo sapiens, UniProt Q5TCX8). Type of assay: cell-based. As to conditions: MLK4; Lys2; 1 μM; GF. As to the method:
as §1

The target in assay [20] is kinases in BCWM.1 cells (Homo sapiens, UniProt P49760). Format: cell-based. Conditions: CLK2; Lys2; 1 μM; GF. As to the method: as §1
For assay [21], the target named is kinases in BCWM.1 cells (Homo sapiens, UniProt O95835). Type of assay: cell-based. As to conditions: LATS1; Lys1; 1 μM; GF. As to the method:
as §1

Assay [22] concerns the target kinases in BCWM.1 cells (Homo sapiens, UniProt P09769). Type of assay: cell-based. As to conditions: FGR; Activation Loop; 1 μM; GF. The protocol: as §1
Assay [23] deals with T1, kinases in BCWM.1 cells. Type of assay: cell-based. Conditions: Erk1; Lys2; 1 μM; GF. The protocol: as §1
The target in assay [24] is kinases in BCWM.1 cells (Homo sapiens, UniProt Q00534). Type of assay: cell-based. Conditions: CDK6; Lys2; 1 μM; GF. The protocol: as §1
For assay [25], the target named is T2, kinases in BCWM.1 cells. Type of assay: cell-based. As to conditions: MASTL, 1 μM, GF. The protocol: as §1
Assay [26] deals with T3, kinases in BCWM.1 cells. Type of assay: cell-based. Conditions: eEF2K; ATP; 1 μM; GF. The protocol: as §1
Assay [27] addresses kinases in BCWM.1 cells (Homo sapiens, UniProt P28482). Type of assay: cell-based. Conditions: Erk2; Lys2; 1 μM; GF. The protocol: as §1
In assay [28] the target is kinases in BCWM.1 cells (Homo sapiens, UniProt P11802). Type of assay: cell-based. Conditions: CDK4; Lys2; 1 μM; GF. The protocol: as §1
Sequence of kinases in BCWM.1 cells (Homo sapiens, UniProt P11802) (P11802 2-303 limits assumed): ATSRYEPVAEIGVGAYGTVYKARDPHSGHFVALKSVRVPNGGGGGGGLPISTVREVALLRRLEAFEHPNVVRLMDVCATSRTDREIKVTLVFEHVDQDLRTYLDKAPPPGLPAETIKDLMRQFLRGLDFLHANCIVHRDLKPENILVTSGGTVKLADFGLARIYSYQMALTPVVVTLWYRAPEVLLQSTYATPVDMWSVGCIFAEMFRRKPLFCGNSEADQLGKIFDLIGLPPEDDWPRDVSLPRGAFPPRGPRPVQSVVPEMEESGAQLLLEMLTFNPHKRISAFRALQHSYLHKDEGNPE
In assay [29] the target is kinases in BCWM.1 cells (Homo sapiens, UniProt Q14004). Format: cell-based. As to the method:
as §1

T1 sequence (P27361 2-379 limits assumed): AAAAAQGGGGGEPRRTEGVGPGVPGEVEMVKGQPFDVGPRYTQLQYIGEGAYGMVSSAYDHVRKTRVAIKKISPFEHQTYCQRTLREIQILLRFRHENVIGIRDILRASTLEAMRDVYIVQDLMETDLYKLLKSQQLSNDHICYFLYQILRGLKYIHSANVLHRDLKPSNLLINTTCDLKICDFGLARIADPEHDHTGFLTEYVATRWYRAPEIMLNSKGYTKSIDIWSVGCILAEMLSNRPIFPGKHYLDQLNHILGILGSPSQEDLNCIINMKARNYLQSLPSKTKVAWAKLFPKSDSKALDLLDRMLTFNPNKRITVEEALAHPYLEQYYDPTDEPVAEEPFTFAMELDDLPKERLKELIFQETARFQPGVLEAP
Sequence of kinases in BCWM.1 cells (Homo sapiens, UniProt P09769) (P09769 2-529 limits assumed): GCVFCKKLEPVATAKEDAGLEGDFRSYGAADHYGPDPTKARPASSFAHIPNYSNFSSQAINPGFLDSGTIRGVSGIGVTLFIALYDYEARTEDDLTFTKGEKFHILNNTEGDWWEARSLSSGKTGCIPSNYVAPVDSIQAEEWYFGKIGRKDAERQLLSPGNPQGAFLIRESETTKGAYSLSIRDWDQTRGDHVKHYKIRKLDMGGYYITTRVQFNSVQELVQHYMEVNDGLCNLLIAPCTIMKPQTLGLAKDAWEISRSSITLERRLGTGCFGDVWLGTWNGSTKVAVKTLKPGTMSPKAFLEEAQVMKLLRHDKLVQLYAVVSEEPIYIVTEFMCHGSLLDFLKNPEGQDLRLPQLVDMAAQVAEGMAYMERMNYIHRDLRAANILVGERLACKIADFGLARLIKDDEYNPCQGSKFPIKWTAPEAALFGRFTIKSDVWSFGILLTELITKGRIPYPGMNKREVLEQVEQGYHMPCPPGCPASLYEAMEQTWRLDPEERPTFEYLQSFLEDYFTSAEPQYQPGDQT
Sequence of PFTAIRE1 (O94921 whole entry, looked up): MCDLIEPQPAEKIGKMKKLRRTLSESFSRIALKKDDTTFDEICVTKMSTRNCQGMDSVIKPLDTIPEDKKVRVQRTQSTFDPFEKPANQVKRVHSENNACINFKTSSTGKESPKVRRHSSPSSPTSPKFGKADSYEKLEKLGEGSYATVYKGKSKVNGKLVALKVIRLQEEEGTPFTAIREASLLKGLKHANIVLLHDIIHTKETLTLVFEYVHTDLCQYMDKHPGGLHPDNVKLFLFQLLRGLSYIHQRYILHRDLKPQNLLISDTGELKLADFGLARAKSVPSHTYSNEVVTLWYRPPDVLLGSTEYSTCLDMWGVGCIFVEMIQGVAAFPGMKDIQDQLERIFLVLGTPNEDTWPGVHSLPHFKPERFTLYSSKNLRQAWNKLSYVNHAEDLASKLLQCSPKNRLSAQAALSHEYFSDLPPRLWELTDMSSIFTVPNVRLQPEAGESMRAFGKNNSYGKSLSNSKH
Sequence of kinases in BCWM.1 cells (Homo sapiens, UniProt P28482) (P28482 2-360 limits assumed): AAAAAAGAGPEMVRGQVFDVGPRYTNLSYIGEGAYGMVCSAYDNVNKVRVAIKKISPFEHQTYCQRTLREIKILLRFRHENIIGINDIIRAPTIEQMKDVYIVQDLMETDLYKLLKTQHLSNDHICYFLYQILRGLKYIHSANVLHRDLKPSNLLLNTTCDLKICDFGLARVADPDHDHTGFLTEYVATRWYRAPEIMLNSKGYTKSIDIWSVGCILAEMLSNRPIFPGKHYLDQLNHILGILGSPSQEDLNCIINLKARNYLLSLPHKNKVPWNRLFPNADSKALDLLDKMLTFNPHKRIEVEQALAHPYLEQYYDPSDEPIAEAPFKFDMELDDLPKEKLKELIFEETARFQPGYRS
Sequence of kinases in BCWM.1 cells (Homo sapiens, UniProt Q96RR4) (Q96RR4 2-588 limits assumed): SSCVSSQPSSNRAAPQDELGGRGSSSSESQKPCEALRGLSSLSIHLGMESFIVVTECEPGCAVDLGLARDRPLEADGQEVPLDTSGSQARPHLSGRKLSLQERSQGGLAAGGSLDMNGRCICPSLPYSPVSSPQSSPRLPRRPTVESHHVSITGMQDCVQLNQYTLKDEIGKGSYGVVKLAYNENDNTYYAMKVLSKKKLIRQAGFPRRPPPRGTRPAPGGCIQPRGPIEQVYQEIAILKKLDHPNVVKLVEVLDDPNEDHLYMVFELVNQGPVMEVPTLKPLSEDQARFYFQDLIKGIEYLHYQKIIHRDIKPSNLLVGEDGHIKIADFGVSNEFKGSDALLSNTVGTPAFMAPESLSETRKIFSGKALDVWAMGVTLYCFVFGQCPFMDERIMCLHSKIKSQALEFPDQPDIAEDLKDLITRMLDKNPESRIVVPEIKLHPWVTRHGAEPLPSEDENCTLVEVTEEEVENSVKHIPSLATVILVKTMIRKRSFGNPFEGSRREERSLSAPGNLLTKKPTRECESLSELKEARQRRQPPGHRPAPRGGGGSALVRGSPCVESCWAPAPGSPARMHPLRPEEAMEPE

Consider `C=CC(=O)N1CC[C@H](Nc2nccc(Nc3ncc(C(=O)Nc4c(C)cccc4C)s3)n2)C1` [Example I-3], for which the “% change of MS signal compared to control sample” value (“% change of MS signal” below) in [1] is 23.5%; in assay [2], 8.5% and 1.5%; in assay [3], −2.8% and −9%; in [4], 20.7% and 19.5%; in assay [5], −11.3% and −5.5%; in [6], −0.6% and 1.5%. The “% change of MS signal” value in assay [7] was 9.7% and 5.6%; in assay [8] (ATP Loop), 5.3% and 6%; in assay [8] (Lys1) it was 16.4% and 9.8%; in [9], −18.9% and −27.8%; in assay [10], 26.2%.
`C=CC(=O)N1CC[C@@H](Nc2nccc(Nc3ncc(C(=O)Nc4c(C)cccc4C)s3)n2)C1` [Example I-4]: the “% change of MS signal” value in assay [11] was 15.3% and 6.3%.
With `CCC(=O)N1CC[C@H](Nc2nccc(Nc3ncc(C(=O)Nc4c(C)cccc4C)s3)n2)C1` [Example I-9], the “% change of MS signal” value is −4.9% and 0.5% in assay [12]; −2.6% and −3.2% in assay [13]; 3.2% and 10.9% in assay [14]; −3.2% and 6.2% in assay [15]; −2.8% and −0.3% in assay [16]; −7.5% and −8.7% in assay [17]. Besides, the “% change of MS signal” value in assay [18] was −18.8% and −10.7%; in assay [19], −22% and −18.5%; in assay [20], −19.3% and −10.6%; in [21] it was −2.8% and 5.4%; in assay [22], 84.7% and 72.1%; in assay [23], −3.1% and 3.1%. Besides, the “% change of MS signal” value was 2.7% and 3.5% in assay [24]; 0.4% and 1.8% in assay [25] (ATP Loop); 2.4% and 8% in assay [25] (Lys1); −51.4% and −48.7% in assay [26]; −3.8% and 4% in assay [27]; 1.2% and 3.4% in assay [28]. Moreover, the “% change of MS signal” value in [29] is 5.7% and 15.3%.
